The values below come from patent US4443459A, “α-Tocopheryl ester of 5-substituted picolinic acid and hypotensive composition containing it” (Banyu Pharmaceutical Co., Ltd., priority 1981, dated 1984).

Like-named read-outs stand apart in the source and are kept apart here. A value given as a limit tells only on which side of the number the result lay.

Data set [1] is described as follows: Acute toxicity LD50, intraperitoneal (Table 5). The settings on record: mouse, in vivo, ip. The text has this:
(§1) The following Tables 4 and 5 summarize the maximum blood pressure lowering rates and the acute toxicity values (LD50 values) of other typical examples of the compound of formula (I).
In Table 5, each compound was intraperitoneally administered to mice.

The subject of data set [2] is Spontaneous hypertensive rats. The experiment in a line: Maximum blood pressure lowering rate, oral (Table 4). It counts as in vivo. The conditions noted are these: Rattus norvegicus, 0.01 mmol/kg oral.
Excerpt: as §1
In Table 4, 0.01 mmol/kg of each compound was orally administered to spontareous hypertensive rats.

Another data set has as its target T1, dopamine β-hydroxylase (Bos taurus, UniProt P15101).
T1 sequence (P15101 1-610): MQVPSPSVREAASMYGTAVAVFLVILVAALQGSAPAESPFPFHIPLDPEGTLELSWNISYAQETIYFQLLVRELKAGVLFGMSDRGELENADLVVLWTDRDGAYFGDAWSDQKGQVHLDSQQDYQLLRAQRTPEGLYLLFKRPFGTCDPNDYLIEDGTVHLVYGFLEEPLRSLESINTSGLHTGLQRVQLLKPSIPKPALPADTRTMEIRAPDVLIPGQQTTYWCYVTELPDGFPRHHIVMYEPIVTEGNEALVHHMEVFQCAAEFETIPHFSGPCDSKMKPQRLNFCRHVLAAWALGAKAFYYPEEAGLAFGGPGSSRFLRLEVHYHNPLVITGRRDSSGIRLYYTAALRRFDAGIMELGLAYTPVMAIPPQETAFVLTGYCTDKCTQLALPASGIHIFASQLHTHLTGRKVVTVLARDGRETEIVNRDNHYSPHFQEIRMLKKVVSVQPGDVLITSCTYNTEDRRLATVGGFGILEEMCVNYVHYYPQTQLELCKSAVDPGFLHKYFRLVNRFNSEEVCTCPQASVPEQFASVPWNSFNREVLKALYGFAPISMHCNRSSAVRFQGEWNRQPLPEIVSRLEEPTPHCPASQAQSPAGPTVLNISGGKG
The experiment in a line: 50% dopamine β-hydroxylase inhibitory concentration. It counts as biochemical.

A short description of the next data set: in vivo. The conditions noted are these: mouse, mice. As to the method: (§2) ddY-Strain female mice (body weight about 20 g), five per group, were used and each of the test compounds was orally or intraperitoneally administered, and two days after the administration, the number of dead mice was counted. From it, the acute toxicity LD50 of each of the compounds was determined by the Behrens-Kraerber method.

The subject of the next data set is ddY-Strain female mice. Put plainly: in vivo. The settings on record: mouse, 4000 mg/kg. Here is the method: as §2
Data set [3] deals with Spontaneous hypertensive rats. Put plainly: Hypotensive action in spontaneous hypertensive rats, oral (tail artery pressure, plethysmography; Table 1). The class given is in vivo, rat (spontaneous hypertensive, male). The text has this:
(§3) dl-α-tocopheryl 5-butylpicolinate and dl-α-tocopherol were used after they were each dissolved in a suitable amount of ethyl ether, mixed with a solution containing 2% of Tween 80 and 2% of Span 40 and after removing ethyl ether, uniformly emulsified. 5-Butylpicolinic acid was used as a solution in 2% Tween 80+2% Span.
(§4) Spontaneous hypertensive rats (male, body weight 350 to 370 g) and Wistar rats with a normal blood pressure level (female, body weight 250 to270 g), three per group, were used. Without anesthesia, the pressure of the tail artery was measured by plethysmography.

The next data set has as its system Normotensive Wistar rats. Put plainly: Hypotensive action in normotensive Wistar rats, oral (tail artery pressure, plethysmography; Table 2). The class given is in vivo, rat (Wistar, female).
Excerpt: as §3, §4

Setting [4] is: read-out: LD50 of the 5-substituted picolinic acid.
Setting [5] is: corresponding acid, read-out: Maximum blood pressure lowering rate (%) of the 5-substituted picolinic acid.
The mark [6] stands for this setting: read-out: LD50 of the compound of the invention.
[7] abbreviates: ester of formula (I), read-out: Maximum blood pressure lowering rate (%) of the compound of the invention.
Where [8] appears, read: intraperitoneal, mice, corresponding acid, read-out: LD50 of the 5-substituted picolinic acid.
Where [9] appears, read: 9.375 mg/kg oral, spontaneous hypertensive rats.
[10] abbreviates: 37.5 mg/kg oral, spontaneous hypertensive rats.

Turning to `CCCCOc1ccc(C(=O)O)nc1` [reference compound], the LD50 (commonly the dose expected to kill half of the subjects tested) in data set [1] (setting [4]) worked out at 134 mg/kg. The inhibition in vivo at 10 µmol/kg in data set [2] (setting [5]) stood at 31%.
Taken in the same sequence, the figures for `O=C(O)c1ccc(CCCCCl)cn1` [reference compound] were 44 mg/kg and 46%.
For the compound `CCCSc1ccc(C(=O)Oc2c(C)c(C)c3c(c2C)CCC(C)(CCCC(C)CCCC(C)CCCC(C)C)O3)nc1` (racemic) [Example 25, dl-α-tocopheryl 5-propylthiopicolate], the LD50 in data set [1] (setting [6]) was > 4000 mg/kg. Moreover, the inhibition in vivo at 10 µmol/kg in data set [2] (setting [7]) was 31%.
Regarding `O=C(O)c1ccc(SCCCCl)cn1` [3-Chloropropyl], the LD50 in data set [1] (setting [4]) was determined as 179 mg/kg. The inhibition in vivo at 10 µmol/kg in data set [2] (setting [5]) was determined as 48%. At dopamine β-hydroxylase (Table 6), the IC50 (usually the concentration at which inhibition is half-maximal) is 550 nM.
`C=CCSc1ccc(C(=O)O)nc1` [Allyl] registered an IC50 against dopamine β-hydroxylase (Table 6) of 550 nM.
`O=C(O)c1ccc(Cc2ccccc2)cn1` [reference compound]: in data set [1] (setting [4]), the LD50 is 135 mg/kg. Also, in data set [2] (setting [5]), the inhibition in vivo at 10 µmol/kg was 39%.
On to `CCCCSc1ccc(C(=O)O)nc1` [Referential Example 1, 5-n-butylthiopicolinic acid], for which the LD50 in data set [1] (setting [8]) came out at 143 mg/kg. For the same compound, the inhibition in vivo at 10 µmol/kg in data set [2] (setting [5]) stood at 36%. Moreover, it took 510 nM to reach half-maximal inhibition against dopamine β-hydroxylase (Referential Example 1) (IC50).
Take `CCCCc1ccc(C(=O)Oc2c(C)c(C)c3c(c2C)CCC(C)(CCCC(C)CCCC(C)CCCC(C)C)O3)nc1` (racemic) [Example 1, dl-α-tocopheryl 5-butylpicolinate]: the LD50 at 48 h in the data set “in vivo” (ip, acute toxicity LD50, intraperitoneally administered, calculated for 5-butylpicolinic acid, intraperitoneal) was > 1210 mg/kg; in the data set “in vivo” (ip, acute toxicity LD50, intraperitoneally administered, intraperitoneal, two days after administration) it was > 4000 mg/kg; in the data set “in vivo” (po, acute toxicity LD50, orally administered, calculated for 5-butylpicolinic acid), > 1210 mg/kg; in the data set “in vivo” (po, acute toxicity LD50, orally administered, oral, two days after administration), > 4000 mg/kg. For the same compound, in the data set on ddY-Strain female mice, the deaths entry is on record as “no case of death was noted”. The “Blood pressure lowering rate, 1h” value amounted to 20.3% in data set [3] (setting [9]); 29.0% in data set [3] (setting [10]); 2.4% with Normotensive Wistar rats (150 mg/kg oral, 1h, normotensive Wistar rats). For the same compound, the “Blood pressure lowering rate, 2h” value is on record as 3.2% in data set [3] (setting [9]); 18.3% in data set [3] (setting [10]); 18.3% in the data set with Normotensive Wistar rats (150 mg/kg oral, 2h, normotensive Wistar rats). In addition, the “Blood pressure lowering rate, 3h” value in data set [3] (setting [9]) is 0%; in data set [3] (setting [10]), 13.0%; with Normotensive Wistar rats (150 mg/kg oral, 3h, normotensive Wistar rats), 8.7%. Also, the “Blood pressure lowering rate, 4h” value is on record as 0% in data set [3] (setting [9]); 0% in data set [3] (setting [10]); 0% with Normotensive Wistar rats (150 mg/kg oral, 4h, normotensive Wistar rats). Moreover, the “selectivity of hypotensive action for hypertension (in words)” value in data set [3] (conclusion from hypertensive vs normotensive rats) is listed as “more selective for hypertension than 5-butylpicolinic acid”. Also, the “hypotensive action (in words)” value in data set [3] (spontaneous hypertensive rats, oral, vs 5-butylpicolinic acid or its mixture with dl-α-tocopherol) is reported as “strong hypotensive action on spontaneous hypertensive rats substantially equivalent to 5-butylpicolinicacid or a mixture of it with dl-α-tocopherol”. The “blood pressure lowering effect (in words)” value in the data set with Normotensive Wistar rats (normotensive rats, oral, vs 5-butylpicolinic acid) was “weaker both in strength and duration than that of 5-butylpicolinic acid”.
In the case of `CCCCOc1ccc(C(=O)Oc2c(C)c(C)c3c(c2C)CCC(C)(CCCC(C)CCCC(C)CCCC(C)C)O3)nc1` (racemic) [Example 14, dl-α-tocopheryl 5-butyloxypicolinate], the LD50 in data set [1] (setting [6]) is > 4000 mg/kg. In data set [2] (setting [7]), the inhibition in vivo at 10 µmol/kg is 36%.
On to `O=C(O)c1ccc(SCc2ccccc2)cn1` [Benzyl], for which the IC50 against dopamine β-hydroxylase (Table 6) worked out at 280 nM.
As for `CCCSc1ccc(C(=O)O)nc1` [n-Propyl, propylthiopicolinic acid], the LD50 in data set [1] (setting [4]) was 167 mg/kg. Also, the inhibition in vivo at 10 µmol/kg in data set [2] (setting [5]) is 33%. Besides, at dopamine β-hydroxylase (Table 6), the IC50 amounted to 700 nM.
For `O=C(O)c1ccc(OCCCCCl)cn1` [reference compound], the LD50 in data set [1] (setting [4]) came out at 172 mg/kg. Further, the inhibition in vivo at 10 µmol/kg in data set [2] (setting [5]) turned out to be 43%.
In the case of `Cc1c(C)c2c(c(C)c1OC(=O)c1ccc(CCC(Cl)CCl)cn1)CCC(C)(CCCC(C)CCCC(C)CCCC(C)C)O2` (racemic) [Example 5, dl-α-tocopheryl 5-(3,4-dichlorobutyl)picolinate], in data set [1] (setting [6]), the LD50 was > 4000 mg/kg. In addition, the inhibition in vivo at 10 µmol/kg in data set [2] (setting [7]) worked out at 53%.
Compound `CSc1ccc(C(=O)O)nc1` [Methyl] returned an IC50 on dopamine β-hydroxylase (Table 6) of 7500 nM. This counts as single-digit micromolar.
In the case of `Cc1c(C)c2c(c(C)c1OC(=O)c1ccc(CCCCCl)cn1)CCC(C)(CCCC(C)CCCC(C)CCCC(C)C)O2` (racemic) [Example 7, dl-α-tocopheryl 5-(4-chlorobutyl)picolinate], the LD50 in data set [1] (setting [6]) is > 4000 mg/kg. For the same compound, the inhibition in vivo at 10 µmol/kg in data set [2] (setting [7]) stood at 50%.
With `CCCCCCCCSc1ccc(C(=O)O)nc1` [n-Octyl], the midpoint of inhibition against dopamine β-hydroxylase (Table 6), the IC50, lay at 23000 nM.
In the case of `O=C(O)c1ccc(CCC(Cl)CCl)cn1` (stereo not drawn) [reference compound], in data set [1] (setting [4]), the LD50 turned out to be 41 mg/kg. Moreover, in data set [2] (setting [5]), the inhibition in vivo at 10 µmol/kg amounted to 53%.
Regarding `CCCCSc1ccc(C(=O)Oc2c(C)c(C)c3c(c2C)CCC(C)(CCCC(C)CCCC(C)CCCC(C)C)O3)nc1` (racemic) [Example 18, dl-α-tocopheryl 5-butylthiopicolinate], in data set [1] (setting [6]), the LD50 is > 4000 mg/kg. The inhibition in vivo at 10 µmol/kg in data set [2] (setting [7]) worked out at 39%.
Taken in the same sequence, the figures for `Cc1c(C)c2c(c(C)c1OC(=O)c1ccc(OCCCCCl)cn1)CCC(C)(CCCC(C)CCCC(C)CCCC(C)C)O2` (racemic) [Example 16, dl-α-tocopheryl 5-(4-chlorobutyloxy)picolinate] were > 4000 mg/kg and 40%.
At dopamine β-hydroxylase (Table 6), `CC(C)CCSc1ccc(C(=O)O)nc1` [i-Pentyl] returned an IC50 of 210 nM.
For `Cc1c(C)c2c(c(C)c1OC(=O)c1ccc(SCCCCl)cn1)CCC(C)(CCCC(C)CCCC(C)CCCC(C)C)O2` (racemic) [Example 23, dl-α-tocopheryl 5-(3-chloropropylthio)picolinate], the LD50 in data set [1] (setting [6]) is > 4000 mg/kg. Also, the inhibition in vivo at 10 µmol/kg in data set [2] (setting [7]) was determined as 43%.
`Cc1c(C)c2c(c(C)c1OC(=O)c1ccc(Oc3ccc(Cl)cc3)cn1)CCC(C)(CCCC(C)CCCC(C)CCCC(C)C)O2` (racemic) [Example 17, dl-α-tocopheryl 5-(4-chlorophenyloxy)picolinate]: the LD50 in data set [1] (setting [6]) is > 4000 mg/kg. The inhibition in vivo at 10 µmol/kg in data set [2] (setting [7]) was found to be 48%.
For `Cc1c(C)c2c(c(C)c1OC(=O)c1ccc(CCC(Br)CBr)cn1)CCC(C)(CCCC(C)CCCC(C)CCCC(C)C)O2` (racemic) [Example 4, dl-α-tocopheryl 5-(3,4-dibromobutyl)picolinate] the same measures were > 4000 mg/kg and 53%.
Taken in the same sequence, the figures for `Cc1c(C)c2c(c(C)c1OC(=O)c1ccc(CCCCBr)cn1)CCC(C)(CCCC(C)CCCC(C)CCCC(C)C)O2` (racemic) [Example 6, dl-α-tocopheryl 5-(4-bromobutyl)picolinate] were > 4000 mg/kg and 48%.
In the case of `Cc1c(C)c2c(c(C)c1OC(=O)c1ccc(Cc3ccccc3)cn1)CCC(C)(CCCC(C)CCCC(C)CCCC(C)C)O2` (racemic) [Example 9, dl-α-tocopheryl 5-benzylpicolinate], in data set [1] (setting [6]), the LD50 is > 4000 mg/kg. For the same compound, the inhibition in vivo at 10 µmol/kg in data set [2] (setting [7]) was determined as 41%.
As for `O=C(O)c1ccc(Oc2ccc(Cl)cc2)cn1` [reference compound], in data set [1] (setting [4]), the LD50 came to 123 mg/kg. In data set [2] (setting [5]), the inhibition in vivo at 10 µmol/kg was 56%.
Consider `O=C(O)c1ccc(CCC(Br)CBr)cn1` (stereo not drawn) [5-(3,4-dibromobutyl)picolinic acid, reference compound], for which, in data set [1] (setting [8]), the LD50 was 110 mg/kg. In data set [2] (setting [5]), the inhibition in vivo at 10 µmol/kg turned out to be 50%.
As to `O=C(O)c1ccc(CCCCBr)cn1` [reference compound], in data set [1] (setting [4]), the LD50 turned out to be 46 mg/kg. The inhibition in vivo at 10 µmol/kg in data set [2] (setting [5]) was determined as 49%.
